The source of these data is patent US8815503B2, “Compositions and methods for immunostimulatory RNA oligonucleotides” (Rheinische Friedrich-Wilhelms-Universitat Bonn, priority 2005, dated 2014).

In this data set the test system is PBMC. As to the kind of experiment: 193 ssRNA 4mer-motif library screen: IL-12 (IL-12p40) production in PBMC of six donors, poly-L-Arg complexation, ELISA at 44 hours, IL-12 index and adjusted IL-12 index. The class given is cell-based, human. Further details: key to Adjusted IL-12 index Mean: IL-12 index (ratio to 9.2sense) minus donor mean, averaged over 6 donors. Conditions: 193 ssRNA oligonucleotide library; data from six individual donors summarized; ascending order. As to the method:
FIG. 9: PBMC of six different healthy donors were isolated and stimulated with poly-L-arginine complexed ssRNA oligonucleotides in duplicates. 44 hours after stimulation IL-12p40 production was assessed in supernatant via ELISA. For all tested ssRNA oligonucleotides (table 3), the mean values of the measured duplicates were normalized to the positive control ssRNA oligonucleotide 9.2sense (5′-AGCUUAACCUGUCCUUCAA (SEQ ID NO: 194)) by dividing the mean value of tested oligonucleotide by the mean value of 9.2sense (=IL-12 index of a given oligonucleotide). Next, all individual IL-12 indices were adjusted to the mean value of all IL-12 indices by subtracting the mean value of all IL-12 indices from the individual IL-12 index of a given oligonucleotide (=adjusted IL-12 index). Data from six individual donors were summarized and were assorted in ascending order displaying the corresponding SEM (for a complete listing including numerical data see table 4). FIG. 9A discloses SEQ ID NOS 460-509, respectively, in order of appearance. FIG. 9B discloses SEQ ID NOS 510-559, respectively, in order of appearance. FIG. 9C discloses SEQ ID NOS 560-609, respectively, in order of appearance. FIG. 9D discloses SEQ ID NOS 610-652, respectively, in order of appearance.
All 193 ssRNA oligonucleotides were tested on PBMC of six individual healthy donors using poly-L-Arg for complexation. At 44 hours after stimulation with RNA oligonucleotides, supernatants were collected and IL-12 production was measured by ELISA. Prior to statistical analysis the raw data were processed as follows: for each cell culture plate the mean IL-12 value of the experimental duplicates for each tested ssRNA oligonucleotide were normalized to the ssRNA oligonucleotide RNA9.2sense (5′-AGCUUAACCUGUCCUUCAA-3′ (SEQ ID NO: 194)). This standard RNA oligonucleotide was included as a positive control on all cell culture plates. Normalization was performed by calculating the ratio of IL-12 induced by the tested oligonucleotide and IL-12 induced by the standard oligonucleotide RNA9.2sense. Thus, for each tested oligonucleotide in an individual donor a mean ratio of IL-12 induction was obtained. In the following, this mean of the ratios is referred to as IL-12 index (one value of IL-12 index per donor). […] The corresponding IL-12 index of oligonucleotide ANP175 for donor 3 was calculated to be 1.90 (=1725 pg/ml divided by 908 pg/ml).
Next, the means of all IL-12 indices for every individual donor were calculated. Then the adjusted IL-12 indices were calculated as IL-12 index minus the mean of all IL-12 indices of one individual donor. […] The adjusted IL-12 index of ANP175 was calculated: 1.90 minus 0.44=1.46. The adjusted IL-12 indices from all six donors were summarized by calculating the means and the corresponding standard error of mean. The data are depicted in ascending order (FIG. 9A, B, C, D). The adjusted IL-12 indices of the top thirty ssRNA oligonucleotides of all six donors were compared using a two-tailed Student's t-test (FIG. 10). For most combinations tested, a significant difference was observed when the interval between the analyzed pairs was at least eight or nine places in the assortment.
On the technique in general: In an ELISA, binding on a coated surface is turned into a signal by an enzyme label.

Take “AAAAAAACACGAAAAAAAA (RNA, backbone not given here) [ANP-Oligo 054]”: the “Adjusted IL-12 index Mean” value is listed as −0.65. Next, “AAAAAAACACUAAAAAAAA (RNA, backbone not given here) [ANP-Oligo 055]”: −0.53; “AAAAAAACAGCAAAAAAAA (RNA, backbone not given here) [ANP-Oligo 056]”: −0.54.

On to “AAAAAAACAGGAAAAAAAA (RNA, backbone not given here) [ANP-Oligo 057]”, for which the “Adjusted IL-12 index Mean” value is recorded as −0.6. Next, “AAAAAAACAGUAAAAAAAA (RNA, backbone not given here) [ANP-Oligo 058]”: 0.22; “AAAAAAACAUCAAAAAAAA (RNA, backbone not given here) [ANP-Oligo 059]”: −0.48; “AAAAAAACAUGAAAAAAAA (RNA, backbone not given here) [ANP-Oligo 060]”: −0.46. Under “AAAAAAACAUUAAAAAAAA (RNA, backbone not given here) [ANP-Oligo 061]” stands −0.23. In the case of “AAAAAAACCACAAAAAAAA (RNA, backbone not given here) [ANP-Oligo 062]”, the “Adjusted IL-12 index Mean” value is listed as −0.66. With “AAAAAAACCAGAAAAAAAA (RNA, backbone not given here) [ANP-Oligo 063]”, the “Adjusted IL-12 index Mean” value is on record as −0.57. Take “AAAAAAACCAUAAAAAAAA (RNA, backbone not given here) [ANP-Oligo 064]”: the “Adjusted IL-12 index Mean” value is −0.38. Take “AAAAAAACCCCAAAAAAAA (RNA, backbone not given here) [ANP-Oligo 065]”: the “Adjusted IL-12 index Mean” value is given as −0.59. In the case of “AAAAAAACCCGAAAAAAAA (RNA, backbone not given here) [ANP-Oligo 066]”, the “Adjusted IL-12 index Mean” value was −0.62. Next, “AAAAAAACCCUAAAAAAAA (RNA, backbone not given here) [ANP-Oligo 067]”: −0.3; “AAAAAAACCGCAAAAA4AA (DNA AAAAAAACCGCAAAAAAAA; RNA, backbone not given here) [ANP-Oligo 068]”: −0.56; “AAAAAAACCGGAAAAAAAA (RNA, backbone not given here) [ANP-Oligo 069]”: −0.64.

Turning to “AAAAAAACCGUAAAAAAAA (RNA, backbone not given here) [ANP-Oligo 070]”, the “Adjusted IL-12 index Mean” value was −0.16. Next, “AAAAAAACCUCAAAAAAAA (RNA, backbone not given here) [ANP-Oligo 071]”: −0.56; “AAAAAAACCUGAAAAAAAA (RNA, backbone not given here) [ANP-Oligo 072]”: −0.51; “AAAAAAACCUUAAAAAAAA (RNA, backbone not given here) [ANP-Oligo 073]”: −0.28. For “AAAAAAACGACAAAAAAAA (RNA, backbone not given here) [ANP-Oligo 074]”, the “Adjusted IL-12 index Mean” value is reported as −0.6. Take “AAAAAAACGAGAAAAAAAA (RNA, backbone not given here) [ANP-Oligo 075]”: the “Adjusted IL-12 index Mean” value is −0.65. As to “AAAAAAACGAUAAAAAAAA (RNA, backbone not given here) [ANP-Oligo 076]”, the “Adjusted IL-12 index Mean” value is listed as 0.02. Under “AAAAAAACGCCAAAAAAAA (RNA, backbone not given here) [ANP-Oligo 077]” stands −0.62. Next, “AAAAAAACGCGAAAAAAAA (RNA, backbone not given here) [ANP-Oligo 078]”: −0.59; “AAAAAAACGCUAAAAAAAA (RNA, backbone not given here) [ANP-Oligo 079]”: −0.09; “AAAAAAACGGCAAAAAAAA (RNA, backbone not given here) [ANP-Oligo 080]”: −0.65.
